From US20100104546A1, “MODULATORS OF ANTIGEN-DEPENDENT T CELL PROLIFERATION” (CHILDREN, YOUTH AND WOMEN'S HEALTH SERVICE, priority 2007, published 2010)
pIC50: −log10 of the molar value.

Legend:
[1] = system: Human PBMC; assay: Human lymphocyte proliferation assay, antigen (tetanus toxoid)-induced; type: cell-based
Method: Peripheral blood mononuclear cells were purified from the blood of normal volunteers using hypagn-ficoll density gradient separation. In the assay 100 μl of PBM (treated or untreated) at a concentration of 2×10^6/ml were stimulated by the addition of 100 μl of PHA (μg/ml) or […] 2 μg/ml TT in microtitre plates. The cultures contained 5% human blood group AB serum. The cells were incubated at 37° C. in 5% CO2-air and high humidity for 72 h or 5 days (for TT). The cultures were pulsed with 1 μl of 3H-TdR 6 h prior to harvest. The amount of radioactivity incorporated was determined to assess the degree of lymphoproliferation.
To attempt to resolve this discrepancy, we examined the sensitivity of the antigen-induced (tetanus toxoid) human lymphocyte response in vitro, under the same conditions as those in which the PHA-induced response were inhibited by β-oxa21:3n-3. Human PBMC which were known to show lymphoproliferation in response to TT were pretreated with a range of concentrations of β-oxa21:3n-3 and then stimulated with TT. Proliferation was quantitated after […] of incubation of cultures. […] Using purified human T cells which were stimulated with PHA-PMA we were able to ascertain that when β-oxa21:3n-3 was added to cells the stimulated cells contained 30 fold more β-oxa-21:3n-3 than resting T cells (FIG. 5B).

[2] = system: circulating cytokine levels; assay: Circulating cytokine levels in SRBC-sensitized mice after intravenous SRBC challenge; type: in vivo; settings: serum, 80 mg/kg IP, 6 h after IV SRBC; ELISA
[3] = system: circulating cytokine levels; assay: as above; type: in vivo; settings: serum, 80 mg/kg IP, 6 h after IV SRBC
Method: Mice were injected subcutaneously with SRBC. After 5 days β-oxa-21:3n-3 (80 mg/kg) or vehicle (whole mouse serum) were injected intraperitoneally. 2 hours later SRBC were injected intravenously. The blood was collected from orbital plexus at 6 hours post intravenous SRBC injection. Serum was separated and frozen immediately at −70° C. The levels of cytokine were measured using BD mouse CBA kits using a BD Array instrument (BD, La Jolla, Calif.).
The insights from these cytokine studies prompted us to investigate whether injected β-oxa-21:3n-3 could regulate cytokine levels in vivo. The β-oxa-21:3n-3- or vehicle-administered pre-immune animals were challenged intravenously with SRBC; after 6 h the serum prepared from the mouse blood and cytokine levels measured.

[4] = system: splenocytes; assay: Ex-vivo antigen (SRBC)-dependent splenocyte proliferation after administration to SRBC-immunized mice (thymidine incorporation); type: in vivo, Balb/c mice
Method: Mice were immunized with SRBC for 5 days. β-oxa-21:3n-3 was delivered in DMSO and injected intraperitoneally at the indicated doses. After 2 h spleens were removed and single cell suspensions were prepared. The splenocytes were cultured for 3 days in the presence (□), or absence (▪) of SRBC. Thymidine incorporation for final 16 hours of culture was determined. The data is expressed as mean±SEM of 3 separate experiments each in triplicate.
Mice were immunized with SRBC for 5 days. Then β-oxa-21:3n-3 dissolved in syngeneic mouse serum and injected intraperitoneally (A), intravenously (B) or gavaged/orally (C) at the indicated concentrations. After 2 h spleens were removed, single cell suspensions prepared and the splenocytes cultured for 3 days in the presence (▪), or absence (□) of SRBC. Thymidine incorporation for final 16 hours of culture was determined. The data is presented as the mean±SEM of 3 separate experiments separate experiments, each in quintuplets.
(§1) Mice were immunized with SRBC. After 5 days they were given β-thia-21:3n-3 at the indicated doses i.p. After 2 hours the spleens were removed and processed into single cell suppressions. These were then cultured in the presence (□), or absence of (▪) of SRBC to assess the proliferation. The results are expressed as mean±SEM of 3 experiments. (B) Effect of β-oxa-21:3n-3 on tetanus toxoid (TT)-induced ex vivo lymphocyte responses. Mice were immunized with TT subcutaneously and after 7 days were given β-oxa-21:3n-3 in mouse serum, intraperitoneally. Two hours later the spleen removed, single cell suspension prepared and examined for lymphoproliferation responses to TT in 5 day cultures. The results are expressed as mean±SEM of 3 experiments.
6-7 weeks old Balb/c mice were injected subcutaneously with 100 μl of 10% sheep red blood cells (IMVS, Inc., Adelaide, Australia) After 5 days 100 ul of β-oxa-21:3n-3 at indicated amounts were injected intraperitoneally, intravenously or gavaged orally. In another experimental set up mice were given β-tha-21:3n-3 i.p. In a third approach mice were infected subcutaneously with 100 μl of Tetanus Toxoid (2,500 Lf/ml). Then 7 days later were given β-oxa-21:3n-3. At indicated time points mice were sacrificed and spleens were removed. Single cell suspensions were prepared and white blood cells (WBC) were enriched by passing through Ficoll-Paque Plus (GE Healthcare). Cells were washed with RPMI-1640 containing 10% fetal bovine serum, 10 mM Hepes, antibiotics and glutamine (RPMI-10) and counted using an automated Cell-Dyne 3500R (Abbott, Inc. MA) instrument. Cells were viable (>98%) as judged by trypan blue exclusion. (β-oxa-21:3n-3)- or vehicle-treated mouse samples (200,000/well) were mixed either with SRBC (600,000/well) with 100 μl of Tetanus toxoid (50 Lf/ml) or phytohaemaglutinin (PHA) (2 μg/ml) or with PHA plus phorbol myristate acetate (PMA) (10 ng/ml) or with PMA plus calcium ionophore A23187 ([…]). Cells were cultured in 96 well U bottom plates (Nunc, Inc. Denmark) for 3 days (except for TT −5 days) at 37° C. under humidified air containing 5% CO2. At some instances 50 μl of supernatants were transferred to a new plate and frozen immediately at −70° C. to be used for cytokine measurements. Thymidine (50 μl, 1 μCi/well) was added at final 16 hours of culture. Cells were harvested and thymidine incorporation was determined using a beta scintillation counter.

[5] = system: splenocytes; assay: Tetanus toxoid (TT)-induced ex vivo lymphocyte proliferation after administration to TT-immunized mice; settings: 10, 40 and 80 mg/kg i.p. in mouse serum, spleens removed 2 h later
Method: as §1
6-7 weeks old Balb/c mice were injected subcutaneously with 100 μl of 10% sheep red blood cells (IMVS, Inc., Adelaide, Australia) After 5 days 100 ul of β-oxa-21:3n-3 at indicated amounts were injected intraperitoneally, intravenously or gavaged orally. […] Cells were washed with RPMI-1640 containing 10% fetal bovine serum, 10 mM Hepes, antibiotics and glutamine (RPMI-10) and counted using an automated Cell-Dyne 3500R (Abbott, Inc. MA) instrument. […] Cells were harvested and thymidine incorporation was determined using a beta scintillation counter. […]

**Q.** With `CC/C=C\C/C=C\C/C=C\CCCCCCCCOCC(=O)O` [β-oxa-21:3n-3] as the molecule, how does the “sensitivity of antigen-induced response relative to mitogenic response” value ([1]; TT versus PHA IC50) read?
**A.** Its value is 15 fold.

**Q.** And the pIC50 ([1]; tetanus toxoid-stimulated human PBMC, in vitro, read-out: IC50 for the inhibition of the antigen-induced response)?
**A.** The pIC50 was 5.70.

**Q.** What about the TGFβ conc [2] of the same molecule?
**A.** Its TGFβ conc is “(52 ± 6) × 10^3 pg/ml”.

**Q.** And the IFNγ conc [3]?
**A.** The IFNγ conc was 229 ± 40 pg/mL.

**Q.** And the IL-2 conc [3]?
**A.** The IL-2 conc was 73 ± 10 pg/mL.

**Q.** What about the IL-4 conc [3] of the same molecule?
**A.** Its IL-4 conc is 3.5 ± 2 pg/mL.

**Q.** What about the IL-5 conc [3] of the same molecule?
**A.** The IL-5 conc was 120 ± 21 pg/mL.

**Q.** And the IL-6 conc [3]?
**A.** Its IL-6 conc is 35 ± 8 pg/mL.

**Q.** And the IL-10 conc [3]?
**A.** The IL-10 conc was 9 ± 5 pg/mL.

**Q.** And the IL-12 conc [3]?
**A.** Its IL-12 conc is 320 ± 145 pg/mL.

**Q.** What about the IL-13 conc [3] of the same molecule?
**A.** Its IL-13 conc is 0 ± 0 pg/mL.

**Q.** And the KC conc [3]?
**A.** The KC conc was 61 ± 21 pg/mL.

**Q.** And the MCP-1 conc [3]?
**A.** The MCP-1 conc was 2039 ± 457 pg/mL.

**Q.** What about the TNFα conc [3] of the same molecule?
**A.** Its TNFα conc is 15 ± 3 pg/mL.

**Q.** What about the “inhibition of splenocyte proliferation, duration of effect” value ([4]; ex-vivo SRBC challenge 1, 2 and 6 days after single administration (80 mg/kg IP)) of the same molecule?
**A.** Its value is “significant inhibition”.

**Q.** And the antigen-dependent splenocyte proliferation ([4]; intravenous, in syngeneic mouse serum, compared with IP)?
**A.** Its antigen-dependent splenocyte proliferation is “even more pronounced”.

**Q.** And the “antigen-dependent proliferation of splenocytes” value ([4]; orally administered (gavage), in mouse serum)?
**A.** The value was “significantly depressed”.

**Q.** And the “antigen-dependent proliferation of splenic lymphocytes, ex-vivo” value ([4]; single IP injection in 7% DMSO, 2 h, SRBC pre-sensitized mice)?
**A.** The value was “dose-dependent inhibition”.

**Q.** What about the “lymphoproliferation in response to TT” value [5] of the same molecule?
**A.** The value was “capable of inhibiting the response”.
